Assay results reported in patent EP4610269A1, “UROKINASE PLASMINOGEN ACTIVATOR SURFACE RECEPTOR (UPAR) LIGANDS FOR DIAGNOSTIC OR THERAPEUTIC USE” (3B Pharmaceuticals GmbH, priority 2024, dated 2025).
Where two headings read alike, the source gives them in different places. *1 amine or outer side, *2 acyl side, *3 side chain or, on linkers, in order; H or OH if unused. Where a SMILES comes first, the peptide text is derived from it. Bridges are numbered along the chain shown (N, C = ends). [ ]: non-standard residue; d: D form. The star is where a group is joined. DOTA = O=C(O)CN1CCN(CC(=O)O)CCN(CC(=O)*)CCN(CC(=O)O)CC1; Phe(2-Cl) = N[C@@H](Cc1ccccc1Cl)C(=O)O; Pro(4R-NH2) = N[C@H]1CN[C@H](C(=O)O)C1; Cyclopentanecarbonyl = O=C(C1CCCC1)*; Pentanesulfonyl = CCCCCS(=O)(=O)*; Hyp = O=C(O)[C@@H]1C[C@@H](O)CN1; Pentanoyl(4-Me) = CC(C)CCC(=O)*; Tic = O=C(O)[C@@H]1Cc2ccccc2CN1; Cit = NC(=O)NCCC[C@H](N)C(=O)O; Propanoyl(3-OEt) = CCOCCC(=O)*; NMeL = CN[C@@H](CC(C)C)C(=O)O; X9 = OC[C@H](CS[*:1])N[*:2]; Nle = CCCC[C@H](N)C(=O)O; Nva = CCC[C@H](N)C(=O)O; Pentanoyl = CCCCC(=O)*; Ahx = NCCCCCC(=O)O

What was measured:
human uPAR (uPAR-Fc) = target: T1, human uPAR (uPAR-Fc) (Homo sapiens, UniProt Q03405); assay: Surface plasmon resonance (SPR) assay, single cycle kinetics; format: binding; conditions: pKD category for uPAR SPR activity assay, uPAR-Fc on Protein A-Chip, 25°C; for Kd: read-out: pKD CAT (converted)
T1 construct: comprising amino acids Leu23-Arg303 according to UniProt entry Q03405.1; purchased R&D Systems 10378-UK-100
T1 sequence (Q03405 23-303): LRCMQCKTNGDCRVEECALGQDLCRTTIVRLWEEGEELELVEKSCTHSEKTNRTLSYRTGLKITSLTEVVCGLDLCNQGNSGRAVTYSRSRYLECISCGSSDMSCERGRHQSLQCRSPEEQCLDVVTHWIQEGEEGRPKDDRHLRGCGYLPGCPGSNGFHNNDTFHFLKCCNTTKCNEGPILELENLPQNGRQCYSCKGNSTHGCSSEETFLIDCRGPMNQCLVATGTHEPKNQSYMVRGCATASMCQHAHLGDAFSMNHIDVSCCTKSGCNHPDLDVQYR
Summary of the method: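 uPAR-Fc (Leu23-Arg303 extracellular domains, human IgG1 Fc) captured on Protein A chip to ~2000 RU; single-cycle kinetics at 25°C in HEPES running buffer pH 7.4 with 0.1% DMSO. KD from double-referenced sensorgrams fitted to 1:1 Langmuir model, reported as pKD.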

[1] = target: T2, uPAR-expressing HEC-265 human endometrial adenocarcinoma cells (Homo sapiens, UniProt Q03405); assay: Competitive FACS binding assay; conditions: pIC50 category of FACS binding
T2 construct: Cell surface uPAR-expressing HEC-265 human endometrial adenocarcinoma cells; host or cells: HEC-265
T2 sequence (Q03405 23-335): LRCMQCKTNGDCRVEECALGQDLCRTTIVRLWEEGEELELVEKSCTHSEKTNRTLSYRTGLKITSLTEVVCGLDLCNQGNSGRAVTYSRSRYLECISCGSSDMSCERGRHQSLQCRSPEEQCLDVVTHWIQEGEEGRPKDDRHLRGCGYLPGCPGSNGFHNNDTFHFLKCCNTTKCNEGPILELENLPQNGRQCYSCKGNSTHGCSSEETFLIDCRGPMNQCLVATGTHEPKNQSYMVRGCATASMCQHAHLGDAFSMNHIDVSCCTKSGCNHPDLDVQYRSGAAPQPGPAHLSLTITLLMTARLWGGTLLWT
Summary of the method: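 Competitive displacement of a 10 nM biotinylated peptide from HEC-265 cells (1 h, 4 °C, PBS/1% BSA), detected via APC-streptavidin by flow cytometry. pIC50 from four-parameter logistic fit of median fluorescence versus concentration.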

Kd (human uPAR (uPAR-Fc)) [nM]	IC50 [1] [nM]	Kd (human uPAR (uPAR-Fc); single cycle kinetics) [nM]	pKD CAT (human uPAR (uPAR-Fc))	pIC50 CAT [1]	Compound
1.58 to 10	12.6 to 31.6				CC[C@H](C)[C@@H]1NC(=O)[C@@H](C)NC(=O)[C@@H]2C[C@@H](N)CN2C(=O)[C@H](Cc2ccccc2)NC(=O)[C@H](Cc2ccc(O)cc2)NC(=O)[C@H](CCC(N)=O)NC(=O)[C@H](CCCNC(N)=O)NC(=O)[C@@H](NC(=O)CCC(C)C)CSSC[C@@H](C(N)=O)NC(=O)[C@H](CC(C)C)NC1=O [UPAR-163, iHex-[Cys-Cit-Gln-Tyr-Phe-Tap-ala-Ile-Leu-Cys]-NH2] ({Pentanoyl(4-Me)}-C[Cit]QYF[Pro(4R-NH2)][dA]ILC-NH2; disulfide 1-10)
	≤ 10	< 1.58			CCCCC(=O)N[C@H]1CSSC[C@@H](C(N)=O)NC(=O)[C@H](CC(C)C)NC(=O)[C@H]([C@@H](C)CC)NC(=O)[C@@H]2CCCN2C(=O)[C@@H]2CCCN2C(=O)[C@H](Cc2ccccc2)NC(=O)[C@H](Cc2ccc(O)cc2)NC(=O)[C@H](CCCCNC(=O)CN2CCN(CC(=O)O)CCN(CC(=O)O)CCN(CC(=O)O)CC2)NC(=O)[C@H](CCCNC(N)=O)NC1=O [UPAR-396, Pent-[Cys-Cit-Lys(DOTA)-Tyr-Phe-Pro-Pro-Ile-Leu-Cys]-NH2] (Pentanoyl-C[Cit]K(DOTA)YFPPILC-NH2; disulfide 1-10)
	≤ 10	< 1.58			CC[C@H](C)[C@@H]1NC(=O)[C@@H]2C[C@@H](O)CN2C(=O)[C@@H]2CCCN2C(=O)[C@H](Cc2ccccc2)NC(=O)[C@H](Cc2ccc(O)cc2)NC(=O)[C@H](CC(=O)O)NC(=O)[C@H](CCCNC(=N)N)NC(=O)[C@@H](NC(=O)CCC(C)C)CSSC[C@@H](C(N)=O)NC(=O)[C@H](CC(C)C)NC1=O [UPAR-458, iHex-[Cys-Arg-Asp-Tyr-Phe-Pro-Hyp-Ile-Leu-Cys]-NHz] ({Pentanoyl(4-Me)}-CRDYFP[Hyp]ILC-NH2; disulfide 1-10)
< 1.58	≤ 10				CCCCCS(=O)(=O)N[C@H]1CSSC[C@@H](C(N)=O)NC(=O)[C@H](CCC)NC(=O)[C@H]([C@@H](C)CC)NC(=O)[C@@H]2C[C@@H](O)CN2C(=O)[C@@H]2CCCN2C(=O)[C@H](Cc2ccccc2)NC(=O)[C@H](Cc2ccc(O)cc2)NC(=O)[C@H](CCC(N)=O)NC(=O)[C@H](CCCNC(=N)N)NC1=O [UPAR-328, PentylSO2-[Cys-Arg-Gln-Tyr-Phe-Pro-Hyp-Ile-Nva-Cys]-NH2] (Pentanesulfonyl-CRQYFP[Hyp]I[Nva]C-NH2; disulfide 1-10)
	≤ 10	1.58 to 10			CCCC[C@@H]1NC(=O)[C@H]([C@@H](C)CC)NC(=O)[C@@H](C)NC(=O)[C@@H]2CCCN2C(=O)[C@H](Cc2ccccc2)NC(=O)[C@H](Cc2ccc(O)cc2)NC(=O)[C@H](CCC(N)=O)NC(=O)[C@H](CCCNC(N)=O)NC(=O)[C@@H](NC(=O)CCC(C)C)CSSC[C@@H](C(N)=O)NC1=O [UPAR-345, iHex-[Cys-Cit-Gln-Tyr-Phe-Pro-ala-Ile-Nle-Cys]-NH2] ({Pentanoyl(4-Me)}-C[Cit]QYFP[dA]I[Nle]C-NH2; disulfide 1-10)
< 1.58	≤ 10				CCCCC(=O)N[C@H]1CSSC[C@@H](CO)NC(=O)[C@H](CCC)NC(=O)[C@H]([C@@H](C)CC)NC(=O)[C@@H]2C[C@@H](O)CN2C(=O)[C@@H]2CCCN2C(=O)[C@H](Cc2ccccc2)NC(=O)[C@H](Cc2ccc(O)cc2)NC(=O)[C@H](CCC(N)=O)NC(=O)[C@H](CCCNC(N)=O)NC1=O [UPAR-292, Pent-[Cys-Cit-Gln-Tyr-Phe-Pro-Hyp-Ile-Nva-Cysol]-OH] (Pentanoyl-C[Cit]QYFP[Hyp]I[Nva]; linker 1-C via X9)
1.58 to 10	12.6 to 31.6				CCCCC(=O)N[C@H]1CSSC[C@@H](C(=O)NCC)NC(=O)[C@H](CCC)NC(=O)[C@H]([C@@H](C)CC)NC(=O)[C@@H]2C[C@@H](O)CN2C(=O)[C@@H]2CCCN2C(=O)[C@H](Cc2ccccc2)NC(=O)[C@H](Cc2ccc(O)cc2)NC(=O)[C@H](CCC(N)=O)NC(=O)[C@H](CCCNC(N)=O)NC1=O [UPAR-146, Pent-[Cys-Cit-Gln-Tyr-Phe-Pro-Hyp-Ile-Nva-Cys]-NHEt] (Pentanoyl-C[Cit]QYFP[Hyp]I[Nva]C-NHEt; disulfide 1-10)
< 1.58	≤ 10				CC[C@H](C)[C@@H]1NC(=O)[C@@H](C)NC(=O)[C@@H]2CCCN2C(=O)[C@H](Cc2ccccc2)NC(=O)[C@H](Cc2ccc(O)cc2)NC(=O)[C@H](CCC(N)=O)NC(=O)[C@H](CCCNC(=N)N)NC(=O)[C@@H](NC(=O)[C@H](CC(C)C)NC(=O)CCCCCNC(=O)CN2CCN(CC(=O)O)CCN(CC(=O)O)CCN(CC(=O)O)CC2)CSSC[C@@H](C(N)=O)NC(=O)[C@H](CC(C)C)NC1=O [UPAR-291, DOTA-Ahx-Leu-[Cys-Arg-Gln-Tyr-Phe-Pro-ala-Ile-Leu-Cys]-NH2] ({DOTA-Ahx}-LCRQYFP[dA]ILC-NH2; disulfide 2-11)
	≤ 10	< 1.58			CCCCC(=O)N[C@H]1CSSC[C@@H](C(N)=O)NC(=O)[C@H](CCC)NC(=O)[C@H]([C@@H](C)CC)NC(=O)[C@@H]2C[C@@H](O)CN2C(=O)[C@@H]2CCCN2C(=O)[C@H](Cc2ccccc2)NC(=O)[C@H](Cc2ccc(O)cc2)NC(=O)[C@H](CCCCNC(=O)CN2CCN(CC(=O)O)CCN(CC(=O)O)CCN(CC(=O)O)CC2)NC(=O)[C@H](CCC(=O)O)NC1=O [UPAR-471, Pent-[Cys-Glu-Lys(DOTA)-Tyr-Phe-Pro-Hyp-Ile-Nva-Cys]-NH2] (Pentanoyl-CEK(DOTA)YFP[Hyp]I[Nva]C-NH2; disulfide 1-10)
			A (pKD values ≥ 8.8)	A (pIC50 values ≥8.0)	Pent-[Cys-Cit-Lys(GdDOTA)-Mpa-Phe-Pro-Hyp-Ile-Nva-Cys]-NH2 [UPAR-251]
< 1.58	≤ 10				CCCC[C@@H]1NC(=O)[C@H](CCC(=O)O)NC(=O)[C@@H](NC(=O)[C@H](CC(C)C)NC(=O)[C@H](CC(=O)O)NC(C)=O)CSSC[C@@H](C(N)=O)NC(=O)[C@H](CC(C)C)NC(=O)[C@H]([C@@H](C)CC)NC(=O)[C@H](C)NC(=O)[C@@H]2CCCN2C(=O)[C@H](Cc2ccccc2)NC(=O)[C@H](Cc2ccc(O)cc2)NC1=O [UPAR-239, Ac-Asp-Leu-[Cys-Glu-Nle-Tyr-Phe-Pro-Ala-Ile-Leu-Cys]-NH2] (Ac-DLCE[Nle]YFPAILC-NH2; disulfide 3-12)
< 1.58	≤ 10				CC[C@H](C)[C@@H]1NC(=O)[C@@H](C)NC(=O)[C@@H]2CCCN2C(=O)[C@H](Cc2ccccc2)NC(=O)[C@H](Cc2ccc(O)cc2)NC(=O)[C@H](CCC(N)=O)NC(=O)[C@H](CCCNC(N)=O)NC(=O)[C@@H](NC(=O)C2CCCC2)CSSC[C@@H](C(N)=O)NC(=O)[C@H](CC(C)C)NC1=O [UPAR-208, Cp-[Cys-Cit-Gln-Tyr-Phe-Pro-ala-Ile-Leu-Cys]-NH2] (Cyclopentanecarbonyl-C[Cit]QYFP[dA]ILC-NH2; disulfide 1-10)
< 1.58	≤ 10				CC[C@H](C)[C@@H]1NC(=O)[C@@H](C)NC(=O)[C@@H]2CCCN2C(=O)[C@H](Cc2ccccc2Cl)NC(=O)[C@H](Cc2ccc(O)cc2)NC(=O)[C@H](CCC(N)=O)NC(=O)[C@H](CCCNC(N)=O)NC(=O)[C@@H](NC(=O)CCC(C)C)CSSC[C@@H](C(N)=O)NC(=O)[C@H](CC(C)C)NC1=O [UPAR-221, iHex-[Cys-Cit-Gln-Tyr-Ocf-Pro-ala-Ile-Leu-Cys]-NH2] ({Pentanoyl(4-Me)}-C[Cit]QY[Phe(2-Cl)]P[dA]ILC-NH2; disulfide 1-10)
	≥ 126	> 100			CCCCC(=O)N[C@H]1CSSC[C@@H](C(N)=O)NC(=O)[C@H](CC(C)C)N(C)C(=O)[C@H]([C@@H](C)CC)NC(=O)[C@@H]2C[C@@H](O)CN2C(=O)[C@@H]2CCCN2C(=O)[C@H](Cc2ccccc2)NC(=O)[C@H](Cc2ccc(O)cc2)NC(=O)[C@H](CCC(N)=O)NC(=O)[C@H](CCCNC(=N)N)NC1=O [UPAR-480, Pent-[Cys-Arg-Gln-Tyr-Phe-Pro-Hyp-Ile-Nml-Cys]-NH2] (Pentanoyl-CRQYFP[Hyp]I[NMeL]C-NH2; disulfide 1-10)
> 100	≥ 126				CCCCC(=O)N[C@H]1CSSC[C@@H](C(N)=O)NC(=O)[C@H](CCC)NC(=O)[C@H]([C@@H](C)CC)NC(=O)[C@@H]2C[C@@H](O)CN2C(=O)[C@@H]2CCCN2C(=O)[C@@H]2Cc3ccccc3CN2C(=O)[C@H](Cc2ccc(O)cc2)NC(=O)[C@H](CCCCNC(=O)CN2CCN(CC(=O)O)CCN(CC(=O)O)CCN(CC(=O)O)CC2)NC(=O)[C@H](CCCNC(N)=O)NC1=O [UPAR-252, Pent-[Cys-Cit-Lys(DOTA)-Tyr-Tic-Pro-Hyp-Ile-Nva-Cys]-NH2] (Pentanoyl-C[Cit]K(DOTA)Y[Tic]P[Hyp]I[Nva]C-NH2; disulfide 1-10)
1.58 to 10	≤ 10				CCOCCC(=O)N[C@H]1CSSC[C@@H](C(N)=O)NC(=O)[C@H](CC(C)C)NC(=O)[C@H]([C@@H](C)CC)NC(=O)[C@@H](C)NC(=O)[C@@H]2CCCN2C(=O)[C@H](Cc2ccccc2)NC(=O)[C@H](Cc2ccc(O)cc2)NC(=O)[C@H](CCC(N)=O)NC(=O)[C@H](CCCNC(N)=O)NC1=O [UPAR-172, EtOPr-[Cys-Cit-Gln-Tyr-Phe-Pro-ala-Ile-Leu-Cys]-NH2] ({Propanoyl(3-OEt)}-C[Cit]QYFP[dA]ILC-NH2; disulfide 1-10)
